Results published in patent US11638702B2, “Glyceryl 3-hydroxybutyrates for traumatic brain injury” (NeuroEnerygy Ventures, Inc., priority 2017, dated 2023).

Assays:
[1] = tested on: traumatic brain injury (TBI) patients; assay: Group comparisons of TBI patients / military personnel given glyceryl tris(3-hydroxybutyrate) versus matched patients; format: in vivo, human
Description: The patients are followed up approximately 6 months, after the TBI.
Military personnel having closed TBIs due to vehicular accidents or IEDs or other battlefield causes are evaluated for the severity of their TBIs and, where glyceryl tris(3-hydroxybutyrate) is available for administration, are started on a regimen of […] in 2 or 3 divided doses for 7 days (which regimen is generally started within 2 or 3 hours of injury) and then re-evaluated at day 7 to assess whether further treatment for the TBI is warranted. These are compared with comparably injured military personnel where access to the glyceryl tris(3-hydroxybutyrate) was not available for administration within the first week after injury.
In light of Example 10, combat troops and medics associated therewith are provided with glyceryl tris(3-hydroxybutyrate) to take into the field for use in triage in the case of mild-moderate closed TBI situations.
In light of Examples 10 and 11, combat troops are routinely given a morning dose of glyceryl tris(3-hydroxybutyrate) while in combat zones in case they suffer a mild to moderate non-penetrating closed TBI. For those troops that do suffer such TBIs within 12 hours of administration, their recovery, both acutely and longer term, is improved as compared to those only receiving the glyceryl tris(3-hydroxybutyrate) administration upon injury, after being matched for injury severity. Similar comparatives between those getting variously identical regimens of glyceryl tris(3-hydroxybutyrate) post-injury other than the single prophylactic dose prior to injury, with those receiving the preinjury dose faring better than those not receiving it, and further those whose injury is closer in time to the administration (1-2 hours post administration) faring better than those being injured further in time form the administration (10-12 hours post-administration).

[2] = tested on: traumatic brain injury (TBI) patients; assay: Oral glyceryl tris(3-hydroxybutyrate) with standard non-restricted diet in individual TBI patients (case examples); format: in vivo, human; conditions: for Clinical status at follow-up: day 7 of regimen
Description: A 60 kg person presents with TBI due to a minor car accident. On initial examination, within 1 hour of the accident, moderate TBI is determined by EMT at the scene, on the basis disorientation and of the Glasgow Coma Scale (9-13). The patient is conscious, is hyperglycemic and able to orally ingest the ester. The patient is started on 0.5 g/kg/day glyceryl tris(3-hydroxybutyrate) orally in 3 divided doses (i.e., 10 g per serving 3 times a day). The patient is transported to a medical facility and allowed to ingest a standard diet lunch, having no glucogenic caloric restriction. […] The patient completes the regimen.
A 70 kg (boxer) presents with a sports injury concussion after having a history of 3 similar concussions over the past year. The past concussions are treated by standard medical practice without the use of ketogenic diet, starvation, or the esters of use in the present invention. The most recent concussive injury occurs 2 hours before the patient being brought into a hospital for treatment. The patient is immediately examined and determined to be hyperglycemic and to have a moderate concussive injury (on the basis of short term loss of consciousness, their lingering disorientation, and a Glasgow Coma Scale score of 9-13). The patient is started on 2.0 g/kg/day glyceryl tris(3-hydroxybutyrate) in three divided dose (i.e.. 46.7 g per serving 3 times a day) and permitted an ordinary standard oral diet not having glucogenic caloric restrictions for a 70 kg person. Treatment continues for 3 days.
The patient in Example 3, knowing that further concussive incidents are likely requests advice as to minimizing the effects of further concussive incidents. The patient is told to restart the glyceryl tris(3-hydroxybutyrate) regimen at least one meal period before partaking in the activity likely to result in a concussive injury. The patient has such serving at a 5 PM dinner and is in a match at 7 PM. The patient does in fact suffer a further TBI which once again is upon examination at the scene is determined to be a moderate TBI, however, the patient is euglycemic. On transport to a medical facility, the patient is re-examined and confirm that they have suffered another moderate TBI. The patient is started on 2.0 g/kg/day glyceryl tris(3-hydroxybutyrate) in three divided doses 46.7 g per serving 3 times a day) and permitted an ordinary standard oral diet not having glucogenic caloric restrictions for a 70 kg person. […] The patient is advised to continue with the glyceryl tris(3-hydroxybutyrate) regimen as in Example 3 for 6 days and return for re-evaluation. The patient maintains the regimen for 3 days instead of the recommended 6 and reports no adverse or lingering effects from the TBI.
The patients in Examples 2, 4, and 5 on re-evaluation are immediately started on the regimens referred to in Examples 1, 3, and 3 respectively for 7 days, and directed to return for re-evaluation on the 7th day of the newly started regimen. […] However, the improvement is not as complete as the patients in Examples 1 or 3.
A 30 kg child is brought to the emergency room with moderate to severe TBI (as per the Modified Glasgow Coma Scale) due to a playground fall, is hyperglycemic, is unconscious, is intubated, and begun on a regimen of 30 g twice daily of glyceryl tris(3-hydroxybutyrate) and further fed standard normal enteral diet. The regimen is continued for 7 days and re-evaluated at that time. […] The treatment is continued, with re-evaluation set for 7 days later.

CC(O)CC(=O)OCC(COC(=O)CC(C)O)OC(=O)CC(C)O (stereo not drawn) [glyceryl tris(3-hydroxybutyrate)]
Long term effects of TBI ([1]; Example 9: moderate TBI, given with normal meals 2 or 3 times a day for one or two weeks, follow-up approximately 6 months after TBI, vs ketogenic diet or starvation): minimal, if not non-existent | Recovery from acute symptoms and long-term post-concussive syndrome symptoms vs those not receiving it ([1]; Example 10: military personnel, closed TBI, 0.5 mg/kg/day to 2.0 mg/kg/day in 2 or 3 divided doses for 7 days, started within 2 or 3 hours of injury): fare much better | Outcome vs treatment as in Example 10 ([1]; Example 11: mild-moderate closed TBI, given within minutes of suffering the TBI): fare even better | Recovery, acutely and longer term, vs administration only upon injury ([1]; Example 12: combat troops, morning prophylactic dose, TBI within 12 hours of administration, matched for injury severity): improved | Disorientation ([2]; Example 1: 60 kg female, moderate TBI (Glasgow Coma Scale 9-13), 0.5 g/kg/day orally in 3 divided doses, standard diet, after 2 days): recovered from their disorientation | Clinical status at follow-up ([2]; Example 1: 60 kg female, moderate TBI, 0.5 g/kg/day orally in 3 divided doses, normal meals): fully recovered | Glycemic status ([2]; Example 1: patient hyperglycemic at presentation, 0.5 g/kg/day, from shortly after ester administration through end of treatment and beyond): euglycemic | Clinical status at follow-up ([2]; Example 3: 70 kg male boxer, 2.0 g/kg/day in three divided doses, standard oral diet): fully recovered | Glycemic status ([2]; Example 3: patient hyperglycemic at presentation, 2.0 g/kg/day, from shortly after ester administration through end of treatment): euglycemic | Adverse effects of the TBI the next day ([2]; Example 6: pre-injury serving, then 2.0 g/kg/day in three divided doses, the next day): no adverse effects | Symptoms on reexamination ([2]; Example 6: regimen maintained for 3 days instead of the recommended 6): no symptoms are seen | Glycemic status at examination after further TBI ([2]; Example 6: serving taken at 5 PM dinner before a 7 PM match (pre-injury dose), moderate TBI): euglycemic | Clinical status at end of treatment ([2]; Example 8: 30 kg child, 30 g twice daily, after an additional 3 days of treatment): fully recovered | Consciousness ([2]; Example 8: 30 kg child, 30 g twice daily, day 4 of continued treatment): regains consciousness | Clinical symptoms ([2]; Example 8: 30 kg child, moderate to severe TBI, unconscious, intubated, 30 g twice daily, standard enteral diet, after 7 days): show improvement, but are not yet in normal ranges
